Test results taken from US10457707B2, “Substituted urea depsipeptide analogs as activators of the CLPP endopeptidase” (priority 2015, dated 2019).
In brackets after ≈: the same amount, converted by molar mass. Where two headings read alike, the source gives them in different places. *1 amine or outer side, *2 acyl side, *3 side chain or, on linkers, in order; H or OH if unused. Where a SMILES comes first, the peptide text is derived from it. Bridges are numbered along the chain shown (N, C = ends). [ ]: non-standard residue; d: D form. The star is where a group is joined. ξ: configuration not given here. Phe(3,5-F2) = N[C@@H](Cc1cc(F)cc(F)c1)C(=O)O; NH(4-OCF3-phenyl) = FC(F)(F)Oc1ccc(N*)cc1; ξPro(4S-Me) = C[C@@H]1CNC(C(=O)O)C1; ξPro(4R-Me) = C[C@H]1CNC(C(=O)O)C1; Heptenoyl(2E) = CCCC/C=C/C(=O)*; NH(4-Me-phenyl) = Cc1ccc(N*)cc1; aThr = C[C@H](O)[C@H](N)C(=O)O; X5 = O=C(C1COCCN1[*:1])[*:2]; Pip = O=C(O)[C@@H]1CCCCN1; NMeA = CN[C@@H](C)C(=O)O; ξPip = O=C(O)C1CCCCN1; CO = O=C([*:1])[*:2]; ξP = O=C(O)C1CCCN1

Legend:
Format in all cases: cell-based
[1] = test system: Enterococcus faecalis, ATCC 33186; assay: Minimal inhibitory concentration assay (microbroth dilution); conditions: Enterococcus faecalis, ATCC33186; read-out: Minimal Inhibitory Concentrations E. faecalis ATCC 33186
In short: (§1)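 Antibacterial activity was measured by CLSI-standard microdilution in broth, using overnight aerobic incubation at 37 °C. Growth inhibition was scored visually, and MIC taken as the lowest concentration preventing growth.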

[2] = test system: Bacillus subtilis, ATCC 23857; assay: as above
In short: as §1

[3] = test system: Staphylococcus aureus, NRS70; assay: as above
In short: as §1

[4] = test system: Staphylococcus aureus, ATCC 29213; assay: as above; conditions: ATCC29213, read-out: Minimal Inhibitory Concentrations S. aureus ATCC 29213
In short: as §1

[5] = test system: Streptococcus pyogenes, ATCC 700294; assay: as above
In short: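 CLSI broth microdilution: two-fold serial compound dilutions in appropriate broth, inoculated and incubated aerobically overnight at 37° C. MIC read visually as lowest concentration preventing bacterial growth.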

[6] = test system: Staphylococcus aureus, USA 300; assay: Minimal inhibitory concentration assay; conditions: USA300, read-out: Minimal Inhibitory Concentrations S. aureus USA 300
In short: as §1

[7] = test system: Staphylococcus aureus, USA 300 wherein ClpP is inactivated; assay: Minimal inhibitory concentration assay
In short: as §1

[8] = test system: Vero (kidney epithelial cells; ATCC CCL-81); assay: Cytotoxicity assay (CellTiter-Glo cell viability, 72 hours)
Description: Cytotoxicity was determined by determining the effect of compounds on cell viability. Vero (kidney epithelial cells; ATCC CCL-81) monolayers were trypsinized and 5000 cells/well were seeded (10-15% confluency) into white-wall, flat bottom 96 well microwell plates (Corning) using enriched Dulbecco's Modified Eagle's Medium (Hyclone:DMEM/High Glucose) containing 10% Fetal Bovine Serum (ATCC-30-2020). Plates were incubated overnight at 37° C. in the presence of 5% CO2. Drug-free media was then replaced with media containing serial dilutions of test compound or DMSO carrier. After an additional 72 hours of incubation, viability was indirectly measured using the CellTiter-Glo® Luminescent Cell Viability (Promega) assay. Assay plates were read at peak emission wavelength of 560 nm using a EnVision® Multilabel Plate Reader (Perkin Elmer) or PHERAstar FS Multilabel reader (BMG, Cary, N.C.). […] USA, www.graphpad.com]. For each experiment, compounds were tested in duplicate. IC50 values presented are the range of two biologically independent experiments.

[9] = test system: Streptococcus pneumoniae, R6; assay: Minimal inhibitory concentration assay; conditions: read-out: Minimal Inhibitory Concentrations S. pneumoniae R6
In short: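 Microbroth dilution with two-fold serial compound dilutions in broth, incubated aerobically overnight at 37° C. MIC taken as the lowest concentration preventing bacterial growth.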

[10] = Bacillus subtilis, ATCC23857; read-out: Minimal Inhibitory Concentrations B. subtilis ATCC 23857
[11] = Staphylococcus aureus, NRS70; read-out: Minimal Inhibitory Concentrations S. aureus NRS70
[12] = Streptococcus pyogenes, ATCC700294; read-out: Minimal Inhibitory Concentrations S. pyogenes ATCC 700294
[13] = Vero cells, 72 hours, growth inhibition, read-out: Cytotoxicity IC50
[14] = Bacillus subtilis, ATCC23857, read-out: Minimal Inhibitory Concentrations B. subtilis ATCC 23857
[15] = Staphylococcus aureus, NRS70, read-out: Minimal Inhibitory Concentrations S. aureus NRS70
[16] = Streptococcus pyogenes, ATCC700294, read-out: Minimal Inhibitory Concentrations S. pyogenes ATCC 700294

Row | Compound | MIC [1] | MIC [2, 10] | MIC [3, 11] | MIC [4] | MIC [5, 12] | MIC [6] | Minimal Inhibitory Concentrations S. aureus USA 300 ΔClpP [7] | IC50 [8, 13] | MIC [2, 14] | MIC [3, 15] | MIC [5, 16] | MIC [9] | IC50 ([8]; African green monkey, 72 h)
1 | CCCC/C=C/C(=O)N[C@@H](Cc1cc(F)cc(F)c1)C(=O)N[C@@H]1C(=O)N2CCC[C@H]2C(=O)N2CCCC[C@H]2C(=O)N[C@@H](C)C(=O)N2CCC[C@H]2C(=O)O[C@H]1C [ADEP 2719, reference compound] ({Heptenoyl(2E)}-[Phe(3,5-F2)][aThr]P[Pip]AP; ester 2-C) | 0.08 µM (≈ 0.0617 µg/mL) | < 0.01 µM | 0.08 µM (≈ 0.0617 µg/mL) | 0.07 µM (≈ 0.054 µg/mL) | < 0.2 µM | < 0.19 µM | 500 µM | 37.7 ± 3.4 µM |  |  |  |  | 
2 | Cc1ccc(NC(=O)N[C@@H](Cc2cc(F)cc(F)c2)C(=O)N[C@H]2COC(=O)[C@@H]3C[C@@H](C)CN3C(=O)[C@H](C)NC(=O)[C@@H]3CCCCN3C(=O)[C@@H]3CCCN3C2=O)cc1 [Compound 24, (S)-3-(3,5-difluorophenyl)-N-((2R,6S,8aS,14aS,20S,23aS)-2,6-dimethyl-5,8,14,19,23-pentaoxooctadecahydro-1H,5H,14H,19H-pyrido[2,1-i]dipyrrolo[2,1-c:2′,1′-l][1]oxa[4,7,10,13]tetraazacyclohexadecin-20-yl)-2-(3-(p-tolyl)ureido)propanamide] |  |  |  | 0.5 µM (≈ 0.397 µg/mL) |  |  |  | 93.8 ± 4.8 µM | 2.2 µM (≈ 1.75 µg/mL) | 0.5 µM (≈ 0.397 µg/mL) | 0.5 µM (≈ 0.397 µg/mL) |  | 
3 | Cc1ccc(NC(=O)N[C@@H](Cc2cc(F)cc(F)c2)C(=O)N[C@@H]2C(=O)N3CCCC3C(=O)N(C)[C@@H](C)C(=O)N[C@@H](C)C(=O)N3CCCC3C(=O)O[C@H]2C)cc1 (stereo partly drawn) [Compound 25, (2S)-3-(3,5-difluorophenyl)-N-((6S,9S,11aS,17S,18S)-6,9,10,18-tetramethyl-5,8,11,16,20-pentaoxohexadecahydro-1H,5H,16H-dipyrrolo[2,1-c:2′,1′-l][1]oxa[4,7,10,13]tetraazacyclohexadecin-17-yl)-2-(3-(p-tolyl)ureido)propanamide] ({NH(4-Me-phenyl)-CO}-[Phe(3,5-F2)][aThr][ξP][NMeA]A[ξP]; ester 2-C) |  |  |  | 0.78 µM (≈ 0.599 µg/mL) |  | 0.78 µM (≈ 0.599 µg/mL) | 200 µM | 10.8 ± 1 µM | 0.02 µM (≈ 0.0154 µg/mL) | 0.78 µM (≈ 0.599 µg/mL) | 1 µM (≈ 0.768 µg/mL) | 0.254 µM (≈ 0.195 µg/mL) | 
4 | Cc1ccc(NC(=O)N[C@@H](Cc2cc(F)cc(F)c2)C(=O)N[C@@H]2C(=O)N3CCCC3C(=O)N(C)[C@@H](C)C(=O)N[C@@H](C)C(=O)N3C[C@@H](C)CC3C(=O)O[C@H]2C)cc1 (stereo partly drawn) [Compound 26, (2S)-3-(3,5-difluorophenyl)-N-((2S,6S,9S,11aS,17S,18S)-2,6,9,10,18-pentamethyl-5,8,11,16,20-pentaoxohexadecahydro-1H,5H,16H-dipyrrolo[2,1-c:2′,1′-l][1]oxa[4,7,10,13]tetraazacyclohexadecin-17-yl)-2-(3-(p-tolyl)ureido)propanamide] ({NH(4-Me-phenyl)-CO}-[Phe(3,5-F2)][aThr][ξP][NMeA]A[ξPro(4S-Me)]; ester 2-C) |  |  |  | 0.2 µM (≈ 0.156 µg/mL) |  | 0.39 µM (≈ 0.305 µg/mL) | 200 µM | 40.5 ± 3.8 µM | 0.03 µM (≈ 0.0235 µg/mL) | 0.2 µM (≈ 0.156 µg/mL) | 0.5 µM (≈ 0.391 µg/mL) | 0.125 µM (≈ 0.0977 µg/mL) | 
5 | Cc1ccc(NC(=O)N[C@@H](Cc2cc(F)cc(F)c2)C(=O)N[C@@H]2C(=O)N3CCCC3C(=O)N3CCOCC3C(=O)N[C@@H](C)C(=O)N3C[C@@H](C)CC3C(=O)O[C@H]2C)cc1 (stereo partly drawn) [Compound 33, (S)-3-(3,5-difluorophenyl)-2-(3-(p-tolyl)ureido)-N-((6aS,12S,13S,15aS,17S,21S,23aS)-13,17,21-trimethyl-6,11,15,20,23-pentaoxooctadecahydro-6H,11H,15H-[1,4]oxazino[3,4-i]dipyrrolo[2,1-c:2′,1′-l][1]oxa[4,7,10,13]tetraazacyclohexadecin-12-yl)propanamide] ({NH(4-Me-phenyl)-CO}-[Phe(3,5-F2)][aThr][ξP][X5]A[ξPro(4S-Me)]; ester 2-C) |  |  |  | 0.2 µM (≈ 0.162 µg/mL) |  | 0.2 µM (≈ 0.162 µg/mL) | 200 µM | 41 ± 4.3 µM | 0.2 µM (≈ 0.162 µg/mL) | 0.1 µM (≈ 0.081 µg/mL) | 0.39 µM (≈ 0.316 µg/mL) | 0.098 µM (≈ 0.0794 µg/mL) | 
6 | C[C@H]1CC2C(=O)O[C@@H](C)[C@H](NC(=O)[C@H](Cc3cc(F)cc(F)c3)NC(=O)Nc3ccc(OC(F)(F)F)cc3)C(=O)N3CCCC3C(=O)N3CCOCC3C(=O)N[C@@H](C)C(=O)N2C1 (stereo partly drawn) [Compound 34, (S)-3-(3,5-difluorophenyl)-2-(3-(4-(trifluoromethoxy)phenyl)ureido)-N-((6aS,12S,13S,15aS,17S,21S,23aS)-13,17,21-trimethyl-6,11,15,20,23-pentaoxooctadecahydro-6H,11H,15H-[1,4]oxazino[3,4-i]dipyrrolo[2,1-c:2′,1′-l][1]oxa[4,7,10,13]tetraazacyclohexadecin-12-yl)propanamide] ({NH(4-OCF3-phenyl)-CO}-[Phe(3,5-F2)][aThr][ξP][X5]A[ξPro(4S-Me)]; ester 2-C) |  | 0.02 µM (≈ 0.0176 µg/mL) | 0.02 µM (≈ 0.0176 µg/mL) | 0.05 µM (≈ 0.044 µg/mL) | 0.1 µM (≈ 0.088 µg/mL) | 0.05 µM (≈ 0.044 µg/mL) | 50 µM |  |  |  |  | 0.049 µM (≈ 0.0431 µg/mL) | 26 ± 2.6 µM
7 | Cc1ccc(NC(=O)N[C@@H](Cc2cc(F)cc(F)c2)C(=O)N[C@@H]2C(=O)N3CCCC3C(=O)N3CCCCC3C(=O)N[C@@H](C)C(=O)N3C[C@H](C)CC3C(=O)O[C@H]2C)cc1 (stereo partly drawn) [Compound 39, (S)-3-(3,5-difluorophenyl)-2-(3-(p-tolyl)ureido)-N-((2R,6S,8aS,14aS,20S,21S,23aS)-2,6,21-trimethyl-5,8,14,19,23-pentaoxooctadecahydro-1H,5H,14H,19H-pyrido[2,1-i]dipyrrolo[2,1-c:2′,1′-l][1]oxa[4,7,10,13]tetraazacyclohexadecin-20-yl)propanamide] ({NH(4-Me-phenyl)-CO}-[Phe(3,5-F2)][aThr][ξP][ξPip]A[ξPro(4R-Me)]; ester 2-C) |  |  |  | 0.05 µM (≈ 0.0404 µg/mL) |  | 0.05 µM (≈ 0.0404 µg/mL) | 100 µM | 40 ± 4.1 µM | 0.02 µM (≈ 0.0162 µg/mL) | 0.05 µM (≈ 0.0404 µg/mL) | 0.2 µM (≈ 0.162 µg/mL) | 0.05 µM (≈ 0.0404 µg/mL) | 
8 | Cc1ccc(NC(=O)N[C@@H](Cc2cc(F)cc(F)c2)C(=O)N[C@H]2COC(=O)C3C[C@H](C)CN3C(=O)[C@H](C)NC(=O)C3CCCCN3C(=O)C3CCCN3C2=O)cc1 (stereo partly drawn) [Compound 45, (S)-3-(3,5-difluorophenyl)-N-((2S,6S,8aS,14aS,20S,23aS)-2,6-dimethyl-5,8,14,19,23-pentaoxooctadecahydro-1H,5H,14H,19H-pyrido[2,1-i]dipyrrolo[2,1-c:2′,1′-l][1]oxa[4,7,10,13]tetraazacyclohexadecin-20-yl)-2-(3-(p-tolyl)ureido)propanamide] |  |  |  | 0.4 µM (≈ 0.318 µg/mL) |  | 0.4 µM (≈ 0.318 µg/mL) | 100 µM | 56.8 ± 6.7 µM |  | 0.2 to 0.4 µM (≈ 0.159 to 0.318 µg/mL) | 0.4 µM (≈ 0.318 µg/mL) | 0.1 µM (≈ 0.0794 µg/mL) | 
